Assays:
HBV capsids = HBV capsids (Hepatitis B virus genotype D subtype ayw, UniProt P03146); assay: Staining of pre-assembled HBV capsids, sucrose gradient and agarose gel electrophoresis (FIG. 3); assay type: binding
Description: Shown at left: Capsids stained with FL-HAPAlexaFluor® 488 (Compound 5) were separated on a sucrose gradient. […] Shown at right: Capsids, at the listed concentration, were stained with 25 nM FL-HAPAlexaFluor® 488 (Compound 5) prior to electrophoresis.
(§1) FL-HAPAlexaFluor® 488 (Compound 5) retains several critical properties of HAP molecules. […] Most importantly, FL-HAPAlexaFluor® 488 (Compound 5) binds pre-assembled cores with high affinity.

control HepG2 cells = assay: Fluorescence microscopy of stained control cells (FIG. 4); assay type: cell-based; conditions: camera on high gain
Description: (§2) Various forms of FL-HAP may be synthesized thereby varying the resulting solubility properties of the fluorescent stain. The more soluble forms are particularly useful for observing HBV cores in solution or serum; they may also be useful for lightly staining intracellular HBV cores. The ability of the illustrative FL-HAP compound, FL-HAPAlexaFluor® 488 (Compound 5), to cross cell membranes and label HBV-expressing cells and, specifically, to label concentrations of HBV cores in those cells, is shown in FIG. 4. […] The more hydrophobic forms of FL-HAP (e.g., Compound 6 and Compound 7) are particularly useful for rapid staining of tissue samples.

HBV core protein (Cp) = HBV core protein (Cp) (Hepatitis B virus genotype D subtype ayw, UniProt P03146); assay: HBV core protein (Cp) assembly rate, assembly induced by NaCl (FIG. 1); assay type: biochemical; conditions: 5 μM Cp, assembly induced with 150 mM NaCl, increasing concentration of stain
Sequence of HBV core protein (Cp) (P03146 whole entry): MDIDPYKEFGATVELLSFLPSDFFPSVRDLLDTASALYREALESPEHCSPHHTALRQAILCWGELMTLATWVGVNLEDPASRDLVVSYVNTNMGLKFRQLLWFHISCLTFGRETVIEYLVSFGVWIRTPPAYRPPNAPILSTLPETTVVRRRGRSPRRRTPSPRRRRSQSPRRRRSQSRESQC
Description: In this experiment, 5 μM Cp was incubated with or without FL-HAPAlexaFluor® 488 (Compound 5) prior to inducing assembly by addition of 150 mM NaCl.
as §1

capsid protein of HBV = capsid protein of HBV (Hepatitis B virus genotype D subtype ayw, UniProt P03146); assay: Binding to the capsid protein of HBV (general statement)
Sequence of capsid protein of HBV (P03146 whole entry): as above

[1] = tested on: HepG2 cells expressing RNA-filled HBV cores; assay: Fluorescence microscopy of stained HBV-producing cells (FIG. 4); assay type: cell-based
Description: as §2

HBV capsid / Cp dimer = HBV capsid / Cp dimer (Hepatitis B virus genotype D subtype ayw, UniProt P03146); assay: Size exclusion chromatography (Superose 6) of Cp assembly reactions (FIG. 2); assay type: binding
Sequence of HBV capsid / Cp dimer (P03146 whole entry): as above
Description: In this experiment, 5 μM Cp was mixed with FL-HAPAlexaFluor® 488 (Compound 5) and then induced to assemble with 150 mM NaCl. Reactions were resolved on a Superose 6 column after 24 hours. Capsid elutes at 9.5 ml, aggregates at 8 ml, and Cp dimer at 18 ml.
as §1

Sequence of HBV capsids (P03146 whole entry): as above

COC(=O)C1=C(CN2CCN(C(=O)CCCNC(=O)c3ccc(-c4c5ccc(=N)c(S(=O)(=O)O)c-5oc5c(S(=O)(=O)O)c(N)ccc45)c(C(=O)O)c3)CC2)NC(c2ccccn2)=NC1c1ccc(F)cc1Cl (stereo not drawn) [Compound 5]
dissociation from HBV capsids (HBV capsids): dissociates slowly
affinity for pre-assembled HBV cores (HBV capsids; SEC, sucrose gradient, agarose gel): high affinity
binding to capsids on electrophoresis (HBV capsids; capsids stained with 25 nM stain prior to electrophoresis, non-equilibrium conditions): binding was evident at nM concentrations
fluorescent labeling of cells (control HepG2 cells): no green puncta are seen
effect on core protein assembly rate (HBV core protein (Cp)): accelerates core protein assembly
binding to the capsid protein of HBV (capsid protein of HBV): specific binding
fluorescent labeling of cells ([1]; HepG2 cells expressing RNA-filled HBV cores): numerous puncta and aggregates of puncta are seen
co-localization of fluorescence with Cp-specific antibodies ([1]; data not shown): co-localize with Cp-specific antibodies
extent of assembly and size of complexes (HBV capsid / Cp dimer; 5 μM Cp, 150 mM NaCl, Superose 6 column after 24 hours, increasing stain): more assembly of progressively larger complexes
free HBV dimer remaining (HBV capsid / Cp dimer; SEC, as stain is added): progressively less free HBV dimer
formation of aberrant particles (HBV capsid / Cp dimer; light scattering in excess of free capsid, products run faster on SEC than capsid): leads to formation of aberrant particles
copies bound per HBV capsid (HBV capsid / Cp dimer; ratio of protein to fluorophore absorbance across SEC peaks): approximately 120 copies
species bound by the stain (capsid vs dimer) (HBV capsid / Cp dimer; visualized at 495 nm): only assembled Cp (i.e., capsid) is bound

COC(=O)C1=C(CN2CCN(C(=O)CCCNC(=S)Nc3ccc(-c4c5ccc(=O)cc-5oc5cc(O)ccc45)c(C(=O)O)c3)CC2)NC(c2ccccn2)=NC1c1ccc(F)cc1Cl (stereo not drawn) [Compound 6]
binding to the capsid protein of HBV (capsid protein of HBV): specific binding

COC(=O)C1=C(CN2CCN(C(=O)CCCNC(=O)CCC3=[N+]4C(=Cc5c(C)cc(C)n5[B-]4(F)F)C=C3)CC2)NC(c2ccccn2)=NC1c1ccc(F)cc1Cl (stereo not drawn) [Compound 7]
binding to the capsid protein of HBV (capsid protein of HBV): specific binding
